Values joined by “and” are separate entries in the source; they are usually repeats but may differ in a detail not shown here. Identical values can stand only once. Like-named read-outs stand apart in the source and are kept apart here.
Key:
RPS10 = molecular target: T1, RPS10 (Homo sapiens, UniProt P46783); type: binding; details: for RPS10 IC50: fluorescence binding
T1 construct: made in house; host or cells: E. coli BL-21

NSP1 = NSP1 (Severe acute respiratory syndrome coronavirus 2, UniProt P0DTD1)
[1] = system: cap-proximal AUG GFP reporter in HEK293T cells; type: cell-based; details: GFP WB densitometry; 20 µM overnight; dmso 0.965946;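 also: ratio of upstream to downstream AUG initiation products on GFP Western blot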
[2] = system: CUG/GUG vs AUG start codon luciferase reporters in HEK293T cells; test: Near-cognate AUG starting codon fidelity reporter assay (GUG, CUG vs AUG); type: cell-based; details: for CUG vs AUG (%): CUG start codon reporter relative to AUG reporter (AUG = 100); for CUG vs AUG (%) / GUG vs AUG (%): single-experiment calculation; for GUG vs AUG (%): GUG start codon reporter relative to AUG reporter (AUG = 100); for average CUG and GUG / average CUG and GUG relative to DMSO / CUG Average / GUG Average: NUG experiment; for CUG Average: CUG vs AUG reporter; for GUG Average: GUG vs AUG reporter; for NUG (Final data, Fig. 1E): average CUG and GUG relative to DMSO, 20 µM overnight; for GUG vs AUG data (%): individual repeat; for GUG vs AUG (%) Average: summary average of repeats, DMSO control average […]
[3] = system: IRF7 5'UTR firefly luciferase reporter in HEK293T cells; details: for Reference vs IRF7 (Final data, Fig. 1E): 1/Result, relative to DMSO; for LONG (summary - All), normalized to DMSO: Long reporter; for LONG (summary - All), normalized to DMSO / SHORT (summary - All), normalized to DMSO: individual replicates, outliers excluded, DMSO = 1; for SHORT (summary - All), normalized to DMSO: Short reporter; for average ( long vs short ratio): summary - All;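 as to all read-outs here: luciferase signal corrected by a co-transfected GFP reporter for transfection efficiency, read after overnight compound exposure, with Long and Short reporters differing in 5'UTR length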
eIF1A = molecular target: T2, eIF1A (Homo sapiens, UniProt P47813); type: binding; details: for fluorescence ratio, eIF1A: background-corrected, relative to DMSO or lowest 1Ai concentration, replicate columns
T2 construct: His-bdSUMO (cleaved yes); made in house; host or cells: E. coli BL-21
T2 sequence (P47813 whole entry): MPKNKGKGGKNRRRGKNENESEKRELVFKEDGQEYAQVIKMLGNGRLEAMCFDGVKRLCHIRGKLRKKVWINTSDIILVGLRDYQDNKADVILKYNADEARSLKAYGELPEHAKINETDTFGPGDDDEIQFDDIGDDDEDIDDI

[4] = compound at 20uM (summary head)
[5] = eIF1A, from the titration data, read-out: IC50 (eIF1A titration block)
[6] = summary table, fluorescence binding assay, read-out: IC50 concentration (µM), WT eIF1A
[7] = summary table, fluorescence binding assay

O=C(COc1ccccc1[N+](=O)[O-])NCc1ccc(-c2ccc(Br)cc2)o1 [1Ai-4700]
RPS10 fluorescence ratio to control (RPS10; 1Ai conc. 0.25 uM): 1 | RPS10 fluorescence ratio to control (RPS10; 1Ai conc. 0.5 uM): 0.9948 | RPS10 fluorescence ratio to control (RPS10; 1Ai conc. 1 uM): 1.113 | RPS10 fluorescence ratio to control (RPS10; 1Ai conc. 2 uM): 1.071 | RPS10 fluorescence ratio to control (RPS10; 1Ai conc. 4 uM): 0.9943 | RPS10 fluorescence ratio to control (RPS10; 1Ai conc. 8 uM): 0.904 | RPS10 fluorescence ratio to control (RPS10; 1Ai conc. 16 uM): 0.762 | RPS10 fluorescence ratio to control (RPS10; 1Ai conc. 32 uM): 0.6123 | RPS10 fluorescence ratio to control (RPS10; 1Ai conc. 64 uM): 0.5202 | RPS10 fluorescence ratio to control (RPS10; 1Ai conc. 256 uM): 0.4416 | IC50 (RPS10; read-out: IC50 (line under RPS10 binding data)): 4.9 µM | IC50 (RPS10; read-out: RPS10 IC50): 4.9 µM | IC50 (RPS10; summary table, fluorescence binding assay, read-out: IC50 concentration (µM), RPS10): 4.9 µM | GFP reporter ratio nsp1/gfp, avg (NSP1): 0.4331 | GFP reporter ratio nsp1/gfp, rep 1 (NSP1): 0.4284 | GFP reporter ratio nsp1/gfp, rep 2 (NSP1): 0.4378 | gfp signal, mean of duplicate wells (NSP1): 2716 and 2411 and 2645 | nsp1 signal, mean of duplicate wells (NSP1): 1163.5 and 1055.5 and 1429.5 | ratio (nsp1/gfp) (NSP1): 0.428 and 0.438 and 0.540 | US/DS ratio, average [1]: 0.7947 | CUG vs AUG (%) [2, 4]: 5.455% | GUG vs AUG (%) [2, 4]: 0.6501% | average CUG and GUG [2]: 6.461 | average CUG and GUG relative to DMSO [2]: 1.433 | CUG Average [2]: 9.432 | GUG Average [2]: 3.49 | NUG (Final data, Fig. 1E) [2]: 1.433 | GUG vs AUG data (%) ([2]; compound at 20uM): 3.85% and 2.62% and 3.02% and 4.47% | GUG vs AUG (%) Average ([2]; compound at 20uM): 3.49% | Reference vs IRF7 (Final data, Fig. 1E) ([3]; 20 µM): 2.452 | LONG (summary - All), normalized to DMSO ([3]; 20 µM): 0.84 and 0.38 and 0.21 and 0.60 | SHORT (summary - All), normalized to DMSO ([3]; 20 µM): 1.10 and 0.65 and 2.34 and 0.87 | average ( long vs short ratio) ([3]; 20 µM): 0.408 | fluorescence ratio, eIF1A (eIF1A; 1Ai conc. 0.25 uM): 1.051 and 0.9016 | fluorescence ratio, eIF1A (eIF1A; 1Ai conc. 0.5 uM): 1.104 and 0.9037 | fluorescence ratio, eIF1A (eIF1A; 1Ai conc. 1 uM): 1.126 and 0.8562 | fluorescence ratio, eIF1A (eIF1A; 1Ai conc. 2 uM): 1.098 and 0.832 | fluorescence ratio, eIF1A (eIF1A; 1Ai conc. 4 uM): 1.037 and 0.7686 | fluorescence ratio, eIF1A (eIF1A; 1Ai conc. 8 uM): 0.8525 and 0.6514 | fluorescence ratio, eIF1A (eIF1A; 1Ai conc. 16 uM): 0.7753 and 0.6291 | fluorescence ratio, eIF1A (eIF1A; 1Ai conc. 32 uM): 0.583 and 0.5184 | fluorescence ratio, eIF1A (eIF1A; 1Ai conc. 64 uM): 0.4409 and 0.3702 | fluorescence ratio, eIF1A (eIF1A; 1Ai conc. 256 uM): 0.3305 and 0.2635 | IC50 (eIF1A; [5]): 20.9 µM | IC50 (eIF1A; [6]): 20.9 µM

CN(C)CC1CCn2cc(c3ccccc32)C2=C(C(=O)NC2=O)c2cn(c3ccccc23)CCO1 (stereo not shown) [1Ai-5662]
RPS10 fluorescence ratio to control (RPS10; 1Ai conc. 0.25 uM): 0.8917 | RPS10 fluorescence ratio to control (RPS10; 1Ai conc. 0.5 uM): 1.048 | RPS10 fluorescence ratio to control (RPS10; 1Ai conc. 1 uM): 0.937 | RPS10 fluorescence ratio to control (RPS10; 1Ai conc. 2 uM): 0.8646 | RPS10 fluorescence ratio to control (RPS10; 1Ai conc. 4 uM): 0.7525 | RPS10 fluorescence ratio to control (RPS10; 1Ai conc. 8 uM): 0.6979 | RPS10 fluorescence ratio to control (RPS10; 1Ai conc. 16 uM): 0.6531 | RPS10 fluorescence ratio to control (RPS10; 1Ai conc. 32 uM): 0.6137 | RPS10 fluorescence ratio to control (RPS10; 1Ai conc. 64 uM): 0.4569 | RPS10 fluorescence ratio to control (RPS10; 1Ai conc. 256 uM): 0.295 | RPS10 IC50 (RPS10): No binding | IC50 concentration (µM), RPS10 (RPS10; [7]): No binding | GFP reporter ratio nsp1/gfp, avg (NSP1): 0.4084 | GFP reporter ratio nsp1/gfp, rep 1 (NSP1): 0.4084 | gfp signal, mean of duplicate wells (NSP1): 442 | nsp1 signal, mean of duplicate wells (NSP1): 180.5 | ratio (nsp1/gfp) (NSP1): 0.408 | US/DS ratio, average [1]: 3.065 | average CUG and GUG [2]: 5.24 | average CUG and GUG relative to DMSO [2]: 1.162 | CUG Average [2]: 7.645 | GUG Average [2]: 2.835 | NUG (Final data, Fig. 1E) [2]: 1.162 | GUG vs AUG data (%) ([2]; compound at 10uM): 1.99% and 4.83% and 1.69% | GUG vs AUG (%) Average ([2]; compound at 10uM): 2.83% | Reference vs IRF7 (Final data, Fig. 1E) ([3]; 20 µM): 0.936 | LONG (summary - All), normalized to DMSO ([3]; 10 µM): 1.11 and 0.84 and 0.46 and 0.50 | SHORT (summary - All), normalized to DMSO ([3]; 10 µM): 0.67 and 0.80 and 0.62 and 0.63 | average ( long vs short ratio) ([3]; 10 µM): 1.068 | fluorescence ratio, eIF1A (eIF1A; 1Ai conc. 0.25 uM): 0.7967 and 0.9449 | fluorescence ratio, eIF1A (eIF1A; 1Ai conc. 0.5 uM, listed as 5662): 0.8569 and 0.971 | fluorescence ratio, eIF1A (eIF1A; 1Ai conc. 1 uM): 0.7317 and 0.9217 | fluorescence ratio, eIF1A (eIF1A; 1Ai conc. 2 uM): 1.065 and 0.7855 | fluorescence ratio, eIF1A (eIF1A; 1Ai conc. 4 uM): 1.002 and 0.7942 | fluorescence ratio, eIF1A (eIF1A; 1Ai conc. 8 uM): 0.774 and 0.658 | fluorescence ratio, eIF1A (eIF1A; 1Ai conc. 16 uM): 0.5642 and 0.6667 | fluorescence ratio, eIF1A (eIF1A; 1Ai conc. 32 uM): 0.2341 and 0.4609 | fluorescence ratio, eIF1A (eIF1A; 1Ai conc. 64 uM): 0.1593 and 0.2928 | fluorescence ratio, eIF1A (eIF1A; 1Ai conc. 256 uM): 0.1171 and 0.07826 | IC50 (eIF1A; [5]): 20.9 µM | IC50 (eIF1A; [6]): 20.9 µM

Oc1cc(Cl)ccc1Oc1ccc(Cl)cc1Cl [1Ai-6248]
RPS10 fluorescence ratio to control (RPS10; 1Ai conc. 0.25 uM): 1.015 | RPS10 fluorescence ratio to control (RPS10; 1Ai conc. 0.5 uM): 0.9639 | RPS10 fluorescence ratio to control (RPS10; 1Ai conc. 1 uM): 0.9786 | RPS10 fluorescence ratio to control (RPS10; 1Ai conc. 2 uM): 0.9545 | RPS10 fluorescence ratio to control (RPS10; 1Ai conc. 4 uM): 0.9327 | RPS10 fluorescence ratio to control (RPS10; 1Ai conc. 8 uM): 0.7864 | RPS10 fluorescence ratio to control (RPS10; 1Ai conc. 16 uM): 0.7439 | RPS10 fluorescence ratio to control (RPS10; 1Ai conc. 32 uM): 0.7362 | RPS10 fluorescence ratio to control (RPS10; 1Ai conc. 64 uM): 0.7781 | RPS10 fluorescence ratio to control (RPS10; 1Ai conc. 256 uM): 1.057 | RPS10 IC50 (RPS10): No binding | IC50 concentration (µM), RPS10 (RPS10; [7]): No binding | GFP reporter ratio nsp1/gfp, avg (NSP1): 0.4361 | GFP reporter ratio nsp1/gfp, rep 1 (NSP1): 0.4445 | GFP reporter ratio nsp1/gfp, rep 2 (NSP1): 0.4277 | gfp signal, mean of duplicate wells (NSP1): 2505 and 4211.5 | nsp1 signal, mean of duplicate wells (NSP1): 1071.5 and 1872 | ratio (nsp1/gfp) (NSP1): 0.428 and 0.444 | US/DS ratio, average [1]: 1.042 | CUG vs AUG (%) ([2]; compound at 5uM (summary head)): 9.031% and 6.716% | GUG vs AUG (%) ([2]; compound at 5uM (summary head)): 1.808% and 1.909% | average CUG and GUG [2]: 4.51 | average CUG and GUG relative to DMSO [2]: 1 | CUG Average [2]: 7.441 | GUG Average [2]: 1.579 | NUG (Final data, Fig. 1E) [2]: 1.000 | GUG vs AUG data (%) ([2]; compound at 5uM): 1.28% and 2.36% and 1.32% and 1.37% | GUG vs AUG (%) Average ([2]; compound at 5uM): 1.58% | Reference vs IRF7 (Final data, Fig. 1E) ([3]; 20 µM): 2.307 | LONG (summary - All), normalized to DMSO ([3]; 5 µM): 0.82 and 0.51 and 0.33 and 0.43 | SHORT (summary - All), normalized to DMSO ([3]; 5 µM): 0.71 and 0.90 and 0.20 | average ( long vs short ratio) ([3]; 5 µM): 0.861 | fluorescence ratio, eIF1A (eIF1A; 1Ai conc. 0.25 uM): 0.9384 and 1.064 | fluorescence ratio, eIF1A (eIF1A; 1Ai conc. 0.5 uM): 0.9722 and 1.055 | fluorescence ratio, eIF1A (eIF1A; 1Ai conc. 1 uM): 1.006 and 1.027 | fluorescence ratio, eIF1A (eIF1A; 1Ai conc. 2 uM): 0.9417 and 1.0128 | fluorescence ratio, eIF1A (eIF1A; 1Ai conc. 4 uM): 0.9205 and 0.9547 | fluorescence ratio, eIF1A (eIF1A; 1Ai conc. 8 uM): 0.8204 and 0.8224 | fluorescence ratio, eIF1A (eIF1A; 1Ai conc. 16 uM): 0.7985 and 0.7888 | fluorescence ratio, eIF1A (eIF1A; 1Ai conc. 32 uM): 0.7283 and 0.6891 | fluorescence ratio, eIF1A (eIF1A; 1Ai conc. 64 uM): 0.6123 and 0.5776 | fluorescence ratio, eIF1A (eIF1A; 1Ai conc. 256 uM): 0.937 and 1.038 | WT eIF1A IC50 (eIF1A; fluorescence binding): No binding | IC50 concentration (µM), WT eIF1A (eIF1A; [7]): No binding
